Assay results reported in patent US20250230138A1, “COMPOUNDS HAVING A T-STRUCTURE FORMED BY AT LEAST FOUR CYCLES FOR USE IN THE TREATMENT OF CANCER AND OTHER INDICATIONS” (TheRas, Inc., priority 2022, published 2025).
Where two headings read alike, the source gives them in different places.

Legend:
pAKT in BT474 cells = assay: Cell-based pAKT HTRF assay in BT474 cells; conditions: BT474 cells, 4 hr incubation, read-out: pAKT inhibition IC50 in BT474 cells
Method in brief: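 Compound titration: 3 μM downward in 3-fold steps, nine points, 4 hr on cells. Detection: lysis, then d2 plus Eu Cryptate antibody mix, room-temperature incubation of 4–24 h, and time-resolved fluorescence read at 615 nm.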

[1] = target: Cys242 in human PIK3CA (157-299) (Homo sapiens (Human), UniProt P42336); assay: Covalent modification assay using MALDI-TOF MS; format: biochemical; conditions: 4 h reaction time point
Method in brief: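 Covalent adduct formation was read by linear-mode MALDI-TOF with sinapinic acid matrix, reported as modified-protein peak height divided by total protein peak heights. Reactions held PIK3CA (157-299) at 1 or 3.33 μM in HEPES/NaCl/MgCl2 buffer, pH 7.3, sampled after 15 min to 4 h at room temperature.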

[2] = Homo sapiens, BT-474, Compounds 10-999
[3] = 3.33 μM protein target, 1:7.5 protein to compound ratio (compounds 1-852)
[4] = 1 μM protein target, 1:5 protein to compound ratio (compounds 853-1279)

Sequence of Cys242 in human PIK3CA (157-299) (P42336 157-299): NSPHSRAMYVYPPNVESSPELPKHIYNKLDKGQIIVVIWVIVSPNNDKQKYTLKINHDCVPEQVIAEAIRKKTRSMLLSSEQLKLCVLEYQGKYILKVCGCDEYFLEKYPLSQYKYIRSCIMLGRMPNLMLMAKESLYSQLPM

Row | SMILES | IC50 (pAKT in BT474 cells; [2]) | % of modification [1, 3] | IC50 (pAKT in BT474 cells; Compounds 10-999) | IC50 (pAKT in BT474 cells; Compounds 1000-1279) | % of modification [1, 4]
1 | C=CC(=O)N1CCn2nc(-c3nc(-c4ccc5c(c4)CCNC5=O)c4ccsc4c3-c3ccc(F)cc3OCCOC)cc2C1 [Compound 189, 6-[7-[4-fluoro-2-(2-methoxyethoxy)phenyl]-6-(5-prop-2-enoyl-6,7-dihydro-4H-pyrazolo[1,5-a]pyrazin-2-yl)thieno[3,2-c]pyridin-4-yl]-3,4-dihydro-2H-isoquinolin-1-one] | < 100 nM | A (percent of modification of PIK3CA protein ≥75%) |  |  | 
2 | C=CC(=O)N1CCn2nc(-c3nc(-c4ccc5c(c4)CCN(C)C5)c4ccsc4c3-c3c(F)cc(F)cc3OC[C@@H](C)O)cc2[C@@H]1C [Compound 546] |  | A (percent of modification of PIK3CA protein ≥75%) | < 100 nM |  | 
3 | C=CC(=O)N1CCc2nc(-c3nc(-c4ccc5c(c4)CS(=N)(=O)C5)c4ccsc4c3-c3ccc(F)cc3OCCOC)sc2C1 (stereo not shown) [Compound 151, 1-[2-[7-[4-fluoro-2-(2-methoxyethoxy)phenyl]-4-(2-imino-2-oxo-1,3-dihydro-2-benzothiophen-5-yl)thieno[3,2-c]pyridin-6-yl]-6,7-dihydro-4H-thiazolo[5,4-c]pyridin-5-yl]prop-2-en-1-one] | < 100 nM | A (percent of modification of PIK3CA protein ≥75%) |  |  | 
4 | C=CC(=O)N1CCc2nc(-c3nc(-c4cnn(C)c4)c4ccsc4c3-c3c(F)cc(F)cc3OCCO)sc2C1 [Compound 398] |  | A (percent of modification of PIK3CA protein ≥75%) | < 100 nM |  | 
5 | C=CC(=O)N1CCc2ncc(-c3nc(-c4ccc5c(c4)CCNC5)c4c(c3-c3ccc(F)cc3OCCOC)CCC4)cc2C1 [Compound 88] |  | A (percent of modification of PIK3CA protein ≥75%) | < 100 nM |  | 
6 | C=CC(=O)N1CCc2ccc(-c3nc(-c4ccc5c(c4)CNC(=O)C5)c4ccsc4c3-c3c(F)cc(F)cc3OCCOC)cc2C1 [Compound 1108] |  |  |  | < 100 nM | A (percent of modification of PIK3CA protein ≥75%)
7 | C=CC(=O)N1CCn2nc(-c3nc(-c4ccc5c(c4)CCNC5=O)c4ccsc4c3-c3c(F)cc(F)cc3OC[C@@H](C)O)cc2[C@H]1C [Compound 894] |  |  | < 100 nM |  | A (percent of modification of PIK3CA protein ≥75%)
8 | C=CC(=O)N1CCc2ncc(-c3nc(-c4cnc(N)nc4)c4ccsc4c3-c3c(F)cc(F)cc3OC(C)C)cc2C1 [Compound 372] |  | A (percent of modification of PIK3CA protein ≥75%) | < 100 nM |  | 
9 | C=CC(=O)N1CCc2nc(-c3nc(-c4ccc5c(c4)CCNC5)c4ccsc4c3-c3ccc(F)cc3OCC3CC3)sc2C1 [Compound 161] |  | A (percent of modification of PIK3CA protein ≥75%) | < 100 nM |  | 
10 | C=CC(=O)N1CCn2nc(-c3nc(N4CCCCC4)c4ccsc4c3-c3ccc(F)cc3OCC3CCN(C)C(=O)C3)cc2C1 (stereo not shown) [Compound 243] |  | A (percent of modification of PIK3CA protein ≥75%) | 100 to 1000 nM |  | 
11 | C=CC(=O)N1CCn2nc(-c3nc(-c4cnnc(C5CC5)c4)c4ccsc4c3-c3c(F)cc(F)cc3OCCOC)cc2C1C (stereo not shown) [Compound 1030] |  |  |  | < 100 nM | A (percent of modification of PIK3CA protein ≥75%)
12 | C=CC(=O)N1Cc2cc(-c3nc(-c4ccnnc4)c4ccsc4c3-c3c(F)cc(F)cc3OCCOC)nn2CC1C (stereo not shown) [Compound 948] |  |  | < 100 nM |  | A (percent of modification of PIK3CA protein ≥75%)
13 | C=CC(=O)N1CCc2cc(-c3nc(-c4ccc5c(c4)CCNC5=O)c4ccsc4c3-c3c(F)cc(F)cc3OCCO)nn2CC1 [Compound 1202] |  |  |  | < 100 nM | A (percent of modification of PIK3CA protein ≥75%)
14 | C=C(F)C(=O)N1CCn2nc(-c3nc(-c4ccc(=O)n(C)c4)c4ccsc4c3-c3ccc(F)cc3OC(C)C)cc2C1 [Compound 276] |  | A (percent of modification of PIK3CA protein ≥75%) | 100 to 1000 nM |  | 
15 | C=CC(=O)N1CCc2ncc(-c3nc(-c4cnn(CC(C)(C)O)c4)c4ccsc4c3-c3c(F)cc(F)cc3OC(C)C)cc2C1 [Compound 345] |  | A (percent of modification of PIK3CA protein ≥75%) | < 100 nM |  | 
16 | C=CC(=O)N1CCn2nc(-c3nc(-c4cnn(C)c(=O)c4)c4ccsc4c3-c3c(F)cc(F)cc3OCCOC)cc2C1C (stereo not shown) [Compound 984] |  |  | < 100 nM |  | A (percent of modification of PIK3CA protein ≥75%)

Row | SMILES | IC50 (pAKT in BT474 cells; [2]) | % of modification [1, 3] | IC50 (pAKT in BT474 cells; Compounds 10-999) | IC50 (pAKT in BT474 cells; Compounds 1000-1279) | % of modification [1, 4]
17 | C=CC(=O)N1CC(n2cc(-c3nc(-c4ccc5c(c4)CCNC5)c4ccsc4c3-c3cccc(=O)n3CCOC)cn2)C1 [Compound 170] |  | D (percent of modification <25%) | 1000 to 3000 nM |  | 
18 | C=CC(=O)N1CCn2nc(-c3nc(-c4ccc5c(c4)CCN(C)C5=O)c4ccsc4c3-c3c(F)cc(F)cc3OCCOC)cc2[C@@H]1C [Compound 974] |  |  | 100 to 1000 nM |  | D (percent of modification <25%)
19 | C=CC(=O)N1CCc2nc(-c3nc(-c4ccc5c(c4)CCNC5)c4ccsc4c3-c3c(F)cc(Cl)cc3OCCOC)sc2C1 [Compound 465] |  | A (percent of modification of PIK3CA protein ≥75%) | 100 to 1000 nM |  | 
20 | C=CC(=O)N1Cc2cc(-c3nc(-c4cnc(C)nc4)c4ccsc4c3-c3c(F)cc(F)cc3OCCOC)nn2C[C@H]1C [Compound 686] |  | A (percent of modification of PIK3CA protein ≥75%) | < 100 nM |  | 
21 | C=CC(=O)N1CCn2nc(-c3nc(-c4ccc(C5(C(=O)NC)CC5)cc4)c4ccsc4c3-c3c(F)cc(F)cc3OCCO)cc2[C@H]1C [Compound 1135] |  |  |  | < 100 nM | A (percent of modification of PIK3CA protein ≥75%)
22 | C=CC(=O)N1CCn2nc(-c3nc(-c4cc5cnn(C)c5cc4F)c4ccsc4c3-c3c(F)cc(F)cc3OCCOC)cc2[C@H]1C [Compound 1164] |  |  |  | < 100 nM | A (percent of modification of PIK3CA protein ≥75%)
23 | C=CC(=O)N1CCc2nc(-c3nc(-c4ccn(C(C)C)c(=O)c4)c4ccsc4c3-c3ccc(F)cc3OCCOC)sc2C1 [Compound 139] |  | A (percent of modification of PIK3CA protein ≥75%) | 100 to 1000 nM |  | 
24 | C=CC(=O)N1CC[C@@H](n2cc(-c3nc(-c4ccc(=O)n(C)c4)c4ccsc4c3-c3c(F)cc(F)cc3OC(C)C)cn2)C1 [Compound 389] |  | A (percent of modification of PIK3CA protein ≥75%) | < 100 nM |  | 
25 | C=CC(=O)N1CCn2nc(-c3nc(-c4cccc(CCN(C)C)c4)c4ccsc4c3-c3c(F)cc(F)cc3OCCOC)cc2C1C (stereo not shown) [Compound 1084] |  |  |  | < 100 nM | A (percent of modification of PIK3CA protein ≥75%)
26 | C=CC(=O)N1CCn2nc(-c3nc(-c4cnn(C)c4)c4ccsc4c3-c3ccc(F)cc3OC)cc2C1 [Compound 206, 1-[2-[7-(4-fluoro-2-methoxy-phenyl)-4-(1-methylpyrazol-4-yl)thieno[3,2-c]pyridin-6-yl]-6,7-dihydro-4H-pyrazolo[1,5-a]pyrazin-5-yl]prop-2-en-1-one] | < 100 nM | A (percent of modification of PIK3CA protein ≥75%) |  |  | 
27 | C=CC(=O)N1CCn2nc(-c3nc(-c4ccc(C(=O)N(C)C)cc4)c4ccsc4c3-c3c(F)cc(F)cc3OCCOC)cc2C1C (stereo not shown) [Compound 1100] |  |  |  | < 100 nM | A (percent of modification of PIK3CA protein ≥75%)
28 | C=CC(=O)N1CCn2nc(-c3nc(-c4ccc(N5CCN(C)CC5)nc4)c4ccsc4c3-c3c(F)cc(F)cc3OCCOC)cc2C1C (stereo not shown) [Compound 1048] |  |  |  | < 100 nM | A (percent of modification of PIK3CA protein ≥75%)
29 | C=CC(=O)N1CCc2ncc(-c3nc(N4CCC5(CC4)COC5)c4ccsc4c3-c3c(F)cc(F)cc3OC(C)C)cc2C1 [Compound 423] |  | A (percent of modification of PIK3CA protein ≥75%) | 100 to 1000 nM |  | 
30 | C=CC(=O)N1CCn2nc(-c3nc(-c4ccc5cnn(C)c(=O)c5c4)c4ccsc4c3-c3c(F)cc(F)cc3OCCOC)cc2C1C (stereo not shown) [Compound 928] |  |  | < 100 nM |  | A (percent of modification of PIK3CA protein ≥75%)
31 | C=CC(=O)N1Cc2cc(-c3nc(-c4cn(C)cn4)c4ccsc4c3-c3c(F)cc(F)cc3OCC(C)(C)O)nn2[C@@H](C)C1 [Compound 883] |  |  | < 100 nM |  | A (percent of modification of PIK3CA protein ≥75%)
32 | C=CC(=O)N1CCn2nc(-c3nc(-c4cnnc(C)c4)c4ccsc4c3-c3c(F)cc(F)cc3OCC(C)O)cc2C1C (stereo not shown) [Compound 823] |  | A (percent of modification of PIK3CA protein ≥75%) | < 100 nM |  | 
